In data set [1] the test system is Micrococcus luteus DSM 20030. Nature of the data set: MIC by microbroth dilution. Format: cell-based. The following applies: Micrococcus luteus, DSM20030, 16 h, 30° C., n.i. = no inhibition up to 67 μg/ml, read-out: MIC. The protocol:
Bacterial strains. Bacterial wildtype strains used in susceptibility assays were either part of HZI's strain collection or purchased from the German Collection of Microorgansims and Cell Cultures (Deutsche Sammlung von Mikroorganismen und Zellkulturen, DSMZ).
Minimum inhibitory concentration (MIC) was determined by microbroth dilution. In brief, overnight cultures of bacteria (EBS medium) were diluted to OD600 0.01. Disciformycin A (1) or B (2) dissolved in DMSO was added directly to the cultures in 96-well plates (Sarstedt, flat bottom) in duplicate and the compound was tested in serial dilution. […] After 16 h incubation at 900 rpm and 30° C. on a microplate shaker (Titramax, Heidolph) absorbance at 600 nm was measured using a microplate reader (POLARstar Omega, BMG Labtech). MIC values were determined by sigmoidal curve fitting.

The subject of data set [2] is Staphylococcus aureus SG511. The data set can be described thus: Agar diffusion assay. Format: cell-based. The following applies: 50 μL of 0.5 mg in 1 mL methanol per 7 mm hole, n.a. = no activity observed, read-out: diameter of inhibition zone. The protocol: (§1) Antimicrobial activities of the gulmirecins were determined in a primary screen against Bacillus subtilis ATCC 6633, Staphylococcus aureus SG511, Staphylococcus auricularis DSM 20609, Mycobacterium vaccae IMET 10670, Pseudomonas aeruginosa K799/61, Escherichia coli SG458, Sporobolomyces salmonicolor SBUG 549, Candida albicans ATCC14053 and Penicillium notatum JP 36. To this end, holes with 7 mm diameter were aseptically punched in the respective agar medium. Subsequently, the agar plates were inoculated with the test organisms. 0.5 mg of every test compound was dissolved in 1 mL of methanol, and 50 μL of this solution was transferred to a single hole. Ciprofloxacin and amphotericin B served as positive controls. After evaporation of the solvent, the agar plates were incubated depending on the growth conditions of the test organisms. […] The test results are shown in Table 6 below, wherein the given values represent the diameters of the respective inhibition zone in the agar diffusion assay.
A general note: Agar diffusion results depend on both activity and mobility in agar.

The subject of data set [3] is Staphylococcus auricularis DSM 20609. Nature of the data set: Agar diffusion assay. Format: cell-based. The settings on record: DSM20609, 50 μL of 0.5 mg in 1 mL methanol per 7 mm hole, n.a. = no activity observed, read-out: diameter of inhibition zone. The protocol:
as §1

The subject of data set [4] is S. auricularis A. Nature of the data set: Bouillon dilution assay (MIC90). Type of data set: cell-based. The settings on record: Staphylococcus auricularis, tryptic soy broth, 37° C., 16 h. The protocol: (§2) Before incubation, 3 was added in decreasing concentrations ([…] to 12.5 μg/ml). After incubation, the OD600 was measured. The experiment was run in triplicate. Ciprofloxacin was used as a positive control.

Data set [5] deals with methicillin-resistant S. aureus (MRSA). The data set can be described thus: Bouillon dilution assay (MIC90). The settings on record: Staphylococcus aureus, tryptic soy broth, 37° C., 16 h. Type of data set: cell-based. The method, then:
as §2

The subject of data set [6] is transformed lung epithelial A-549 cells. Nature of the data set: MTT assay, cytotoxic activity. Format: cell-based, human. The following applies: incubation 24 or 48 hours. The method, then: (§3) The cytotoxic activity of gulmirecin A (3) and gulmirecin B (4) against human cells was evaluated in the well-established MTT assay using primary monocytes from human peripheral blood as well as transformed lung epithelial cell A-549 cell and leukemic Mono Mac 6 cells. Furthermore, 3 and 4 were tested against K-562, HUVEC, and HeLa cells.
(§4) The human monocytic cell line Mono Mac 6 was cultured in RPMI 1640 medium supplemented with FCS (10%, v/v), penicillin (100 U/ml), streptomycin (100 μg/ml), insulin (10 μg/ml), oxaloacetic acid (1 mM), sodium pyruvate (1 mM), and 1× non-essential amino acids at 37° C. and 5% CO2. A-549 cells (DSM ACC-107) were cultured in DMEM high glucose (4.5 g/l) medium supplemented with FCS (10% v/v), penicillin (100 U/ml) and streptomycin (100 μg/ml) at 37° C. in a 5% CO2 incubator. K-562 (DSM ACC 10) and HeLa cells (DSM ACC 57) were grown in RPMI 1640, whereas cells of HUVEC (ATCC CRL-1730) were cultured in DMEM medium. The respective media were supplemented with ultraglutamine 1 (10 ml/l), gentamicin sulfate (500 μl/l), and FCS (10% v/v).
(§5) Cells (3×10^5 Mono Mac 6, 1×10^5 A-549 cells, or 2×10^6 monocytes per well) were seeded in a 96-well plate in the respective medium (100 μl/well). Monocytes were allowed to adhere for 1.5 hours (37° C., 5% CO2) prior to treatment. Test compounds (0.3% DMSO as vehicle) were added to each well and samples were incubated for 48 hrs. Then, 20 μl of thiazolyl blue tetrazolium bromide (MTT, 5 mg/ml PBS) were added, and the incubation was continued at 37° C., 5% CO2 until blue staining of the vehicle control. Formazan formation was stopped by adding 100 μl of lysis buffer (SDS, 10%, w/v in 20 mM HCl) and samples were shaken overnight. Absorbance of each well was measured at 570 nm in a Multiskan™ microplate spectrophotometer (Thermo Scientific).
Background: Tetrazolium dyes change colour on reduction, which living cells bring about.

For data set [7], the system named is leukemic Mono Mac 6 cells. Nature of the data set: MTT assay, cytotoxic activity. Type of data set: cell-based, human. The following applies: incubation 24 or 48 hours. The method, then: as §3, §4
as §5, with “Test compounds (0.3% DMSO as vehicle) were added to each well and samples were incubated for 48 hrs.” left out

In data set [8] the test system is HeLa cells. Nature of the data set: Cytotoxic effect (methylene blue staining). Format: cell-based, human. The settings on record: at a concentration of 100 μM. The method, then: as §4
The test substances were dissolved in methanol before being diluted in DMEM. The adherent cells were harvested at the logarithmic growth phase after soft trypsinization using 0.25% trypsin in PBS containing 0.02% EDTA. For each experiment, approximately 10,000 cells were seeded with 0.1 ml culture medium per well of the 96-well microplates. […] In case of K-562 cells, the number of viable cells in every well was determined using the CellTiter-Blue1 assay. […] The optical densities were measured at 660 nm in a SUNRISE microplate reader (TECAN).

Molecules are shown by their SMILES. In brackets after ≈: the same amount, converted by molar mass.

The record followed here is patent US20200231562A1, “NOVEL MACROLIDE ANTIBIOTICS” (HELMHOLTZ-ZENTRUM FÜR INFEKTIONSFORSCHUNG GMBH, priority 2014, published 2020).

Usually MIC stands for the lowest concentration found to suppress growth. `C/C=C(/C)[C@H]1C/C=C(\C)[C@@H](O[C@H]2O[C@H](CO)[C@@H](O)[C@@H]2O)[C@H](OC(=O)CC(C)C)C(=O)C/C=C(/C)C(=O)O1` [Compound 1, disciformycin A]: the MIC in data set [1] stood at 67 µg/mL (≈ 128 µM).

Usually zone of inhibition stands for the size of the clear area around the sample on an inoculated plate. As a reminder, the MIC90 is the lowest concentration that inhibits either 90% of growth or 90% of the strains tested, depending on the study. Low values mean higher susceptibility, high ones lower susceptibility. On to `C/C=C(/C)[C@H]1C/C=C(\C)[C@@H](O[C@H]2O[C@H](CO)[C@@H](O)[C@@H]2O)[C@H](OC(=O)CC(C)C)C(=O)C[C@@H](O)[C@H](C)C(=O)O1` [Compound 3, gulmirecin A], for which the zone of inhibition at 25 µg/hole in data set [2] turned out to be 29 mm; in data set [3], 31 mm. Besides, the results for the MIC90 in data set [4] and in data set [5] were 22.5 µM (≈ 12.2 µg/mL) and 23.1 µM (≈ 12.5 µg/mL), respectively. Further, the “cell viability / cytotoxicity (MTT)” value in data set [6] and in data set [7] was “no reduction in cell viability at the concentrations required for antibacterial activity” in each case. Moreover, in data set [8], the inhibition of proliferation entry is given as “did not inhibit”.

Regarding `C/C=C(/C)[C@H]1C/C=C(\C)[C@@H](O[C@H]2O[C@H](CO)[C@@H](O)[C@@H]2O)[C@H](O)C(=O)CC[C@H](C)C(=O)O1` [Compound 4, gulmirecin B], the zone of inhibition at 25 µg/hole turned out to be 17 mm in data set [2] and 19 mm in data set [3]. In addition, the “cell viability / cytotoxicity (MTT)” value in data set [6] and in data set [7] was “no reduction in cell viability at the concentrations required for antibacterial activity” throughout. Moreover, in data set [8], the inhibition of proliferation result was “did not inhibit”.
